Measurements: US8455397B2, “Penoxsulam as a turfgrass, vineyard and orchard floor herbicide” (Dow AgroSciences, LLC, priority 2005, dated 2013)

Tests used:
[1] = test system: barnyardgrass (ECHCG); assay: Pre-emergence weed nursery field study; format: in vivo, Echinochloa crus-galli; conditions: weed nursery in the field, 27 Days After Application
Description: (§1) Field studies were conducted in a non-fumigated weed nursery trial. Weed species were planted in single strips with a row planter at 36 centimeter spacing. Plot size was 3.05×9.2 meters, 4 replicate plots per treatment. Weed species were seeded at appropriate depths and later the same day pre-emergent applications were made to the soil surface. Liquid applications were made using a backpack sprayer calibrated to deliver 187 liters per hectare (L/ha). Applications were made in Fresno, Calif. in June. Sprinkler irrigation was applied at regular intervals throughout study period. Control of each weed species in the study site was made 4 weeks after treatment. Control was determined visually by comparing treated and untreated weeds and scored on a 0 to 100 percent scale where 0 corresponds to no control and 100 corresponds to complete kill or no emergence.

[2] = test system: broadleaf plantain (PLAMA); assay: Granule carrier comparison, pre-emergence greenhouse study; format: in vivo, Plantago major L.; conditions: pre-emergent greenhouse
Description: (§2) Greenhouse and field studies evaluated the effect of two granule carriers and two particles sizes on the postemergent broadleaf activity of penoxsulam. The two carriers were a 46-0-0 and 28-4-12 fertilizer blend and the particle sizes averaged 0.75 mm and 2.15 mm.
(§3) Greenhouse studies were applied both post and pre-emergence to broadleaf weeds and sedge reared from seed or nutlet in 12.7″ (32.25 cm) by 8.8″ (22.35 cm) flats of a loam soil. Particle size and carrier were evaluated post emergence, carrier comparisons with the smaller particle size of 0.75 was evaluated pre-emergence. Stage of growth of species at post emergence application: PLAMA and TAROF in the 3 to 5 leaf stage, TRFRE in the 3rd tri-foliate stage and CYPES in the 3 to 4 leaf stage. Post emergence trial design was a replicated block, one species per flat, 3 replicate flats per treatment. Granule treatments were uniformly applied to individual flats on an area basis using a common hand-shaker method. Post emergence applications were made to the flat covering both soil and misted foliage. Trial was sub-irrigated daily, and watered over the top 1 time per week starting 7 days after application to simulate a natural rainfall event. Active weed growth was maintained throughout the study period. Weed control of each species in the post emergence study was assessed at 2, 3 and 4 weeks after treatment. Pre-emergence trial design was 2 species per flat, 4 replicate flats, block design. Pre-emergence applications were made to the soil surface using a common hand shaker method on an area basis. Overhead irrigation was maintained throughout the trial. Weed control of each species in the pre-emergence study was assessed at 2, 3, 4 and 5 weeks after application. Control was determined visually by comparing treated and untreated flats and scored on a 0 to 100 percent scale where 0 corresponds to no control and 100 corresponds to complete kill.

[3] = test system: dandelion (TAROF); assay: Granule carrier/particle size, post emergence greenhouse study; format: in vivo, Taraxacum officinale; conditions: postemergent greenhouse
Description: as §2, §3

[4] = test system: little mallow (MALPA); assay: Pre-emergence orchard floor weeds, greenhouse study; format: in vivo, Malva parviflora; conditions: 28 Days After Application
Description: (§4) Greenhouse studies were conducted by seeding species in a loam soil and applying the herbicides to the soil surface using a Cornwall 5 milliliter glass syringe fitted with a TeeJet TN-3 nozzle on an area basis Immediately following herbicide application the pots were irrigated over the top to move the herbicides into the seeding zone. Pots were kept well irrigated throughout the trial. A percent visual weed control assessment was taken 4 weeks after application. Control was determined visually by comparing treated and untreated pots and scored on a 0 to 100 percent scale where 0 corresponds to no control and 100 corresponds to complete kill, or no emergence.

[5] = test system: dandelion (TAROF); assay: Granule carrier comparison, pre-emergence greenhouse study; format: in vivo, Taraxacum officinale; conditions: pre-emergent greenhouse
Description: as §2, §3

[6] = test system: redroot pigweed (AMARE); assay: Pre-emergence weed nursery field study; format: in vivo, Amaranthus retroflexus; conditions: weed nursery in the field, 27 Days After Application
Description: as §1

[7] = test system: broadleaf weeds and sedges; assay: Weed control in turfgrass and vine and orchard floors (general statement); format: in vivo; conditions: TRFRE, PLALA, TAROF, PLAMA, GLEHE, LESST, HYDSS, DIQVI, BELPE, CYPES
[8] = test system: giant foxtail (SETFA); assay: Pre-emergence weed nursery field study; format: in vivo, Setaria faberi; conditions: weed nursery in the field, 27 Days After Application
Description: as §1

[9] = test system: redstem filaree (EROCI); assay: Pre-emergence orchard floor weeds, greenhouse study; format: in vivo, Erodivam cicutarium; conditions: 28 Days After Application
Description: as §4

[10] = test system: vine and orchard floor weeds; assay: Vine and orchard floor weed control (general statement); format: in vivo; conditions: APESV, AMARE, POROL, SETFA, ECHCG, ECHCO, SSYIR, SINAR, EPHHE, EROCI, MALNE, MALPA, SONOL, SENVU
[11] = carrier 28-4-12, particle size 0.75 mm, 5.6 gai/Ha
[12] = carrier 28-4-12, particle size 0.75 mm, 11.2 gai/Ha
[13] = carrier 28-4-12, particle size 0.75 mm, 22.4 gai/Ha
[14] = carrier 46-0-0, particle size 0.75 mm, 5.6 gai/Ha
[15] = carrier 46-0-0, particle size 0.75 mm, 11.2 gai/Ha
[16] = carrier 46-0-0, particle size 0.75 mm, 22.4 gai/Ha

Q: With COc1cnc(OC)n2nc(NS(=O)(=O)c3c(OCC(F)F)cccc3C(F)(F)F)nc12 [Penoxsulam, 2-(2,2-difluoroethoxy)-N-(5,8-dimethoxy[1,2,4]triazolo[1,5-c]-pyrimidin-2-yl)-6-(trifluoromethyl)benzenesulfonamide] as the compound, how does the “Pre-emergent Percent Mean Control” value ([1]; 8.8 gai/Ha) read?
A: The value was 87%.

Q: What about the “Pre-emergent Percent Mean Control” value ([1]; 17.5 gai/Ha) of the same compound?
A: Its value is 96%.

Q: What about the “Pre-emergent Percent Mean Control” value ([1]; 35 gai/Ha) of the same compound?
A: The value was 98%.

Q: What about the “Pre-emergent Percent Mean Control” value ([1]; 70 gai/Ha) of the same compound?
A: The value was 100%.

Q: And the “Percent Weed Control 35 DAA” value [2, 11]?
A: Its value is 72%.

Q: And the “Percent Weed Control 35 DAA” value [2, 12]?
A: Its value is 82%.

Q: And the “Percent Weed Control 35 DAA” value [2, 13]?
A: Its value is 100%.

Q: And the “Percent Weed Control 35 DAA” value [2, 14]?
A: Its value is 76%.

Q: What about the “Percent Weed Control 35 DAA” value [2, 15] of the same compound?
A: The value was 87%.

Q: And the “Percent Weed Control 35 DAA” value [2, 16]?
A: The value was 94%.

Q: What about the “Percent Weed Control 27-30 DAA” value [3, 11] of the same compound?
A: Its value is 50%.

Q: And the “Percent Weed Control 27-30 DAA” value [3, 12]?
A: The value was 88%.

Q: What about the “Percent Weed Control 27-30 DAA” value [3, 13] of the same compound?
A: The value was 97%.

Q: What about the “Percent Weed Control 27-30 DAA” value ([3]; carrier 28-4-12, particle size 2.15 mm, 5.6 gai/Ha) of the same compound?
A: The value was 23%.

Q: What about the “Percent Weed Control 27-30 DAA” value ([3]; carrier 28-4-12, particle size 2.15 mm, 11.2 gai/Ha) of the same compound?
A: The value was 60%.

Q: And the “Percent Weed Control 27-30 DAA” value ([3]; carrier 28-4-12, particle size 2.15 mm, 22.4 gai/Ha)?
A: The value was 68%.

Q: And the “Percent Weed Control 27-30 DAA” value [3, 14]?
A: The value was 55%.

Q: What about the “Percent Weed Control 27-30 DAA” value [3, 15] of the same compound?
A: The value was 67%.

Q: What about the “Percent Weed Control 27-30 DAA” value [3, 16] of the same compound?
A: The value was 98%.

Q: And the “Percent Weed Control 27-30 DAA” value ([3]; carrier 46-0-0, particle size 2.15 mm, 5.6 gai/Ha)?
A: Its value is 23%.

Q: What about the “Percent Weed Control 27-30 DAA” value ([3]; carrier 46-0-0, particle size 2.15 mm, 11.2 gai/Ha) of the same compound?
A: The value was 48%.

Q: What about the “Percent Weed Control 27-30 DAA” value ([3]; carrier 46-0-0, particle size 2.15 mm, 22.4 gai/Ha) of the same compound?
A: Its value is 60%.

Q: And the “Pre-emergent Percent Mean Control” value ([4]; 8.8 gai/Ha)?
A: Its value is 74%.

Q: And the “Pre-emergent Percent Mean Control” value ([4]; 17.5 gai/Ha)?
A: Its value is 87%.

Q: And the “Pre-emergent Percent Mean Control” value ([4]; 35 gai/Ha)?
A: Its value is 93%.

Q: What about the “Pre-emergent Percent Mean Control” value ([4]; 70 gai/Ha) of the same compound?
A: The value was 100%.

Q: And the “Percent Weed Control 35 DAA” value [5, 11]?
A: The value was 71%.

Q: And the “Percent Weed Control 35 DAA” value [5, 12]?
A: The value was 96%.

Q: What about the “Percent Weed Control 35 DAA” value [5, 13] of the same compound?
A: The value was 98%.

Q: And the “Percent Weed Control 35 DAA” value [5, 14]?
A: The value was 77%.

Q: What about the “Percent Weed Control 35 DAA” value [5, 15] of the same compound?
A: Its value is 96%.

Q: What about the “Percent Weed Control 35 DAA” value [5, 16] of the same compound?
A: The value was 96%.

Q: And the “Pre-emergent Percent Mean Control” value ([6]; 8.8 gai/Ha)?
A: Its value is 100%.

Q: What about the “Pre-emergent Percent Mean Control” value ([6]; 17.5 gai/Ha) of the same compound?
A: The value was 100%.

Q: What about the “Pre-emergent Percent Mean Control” value ([6]; 35 gai/Ha) of the same compound?
A: Its value is 100%.

Q: What about the “Pre-emergent Percent Mean Control” value ([6]; 70 gai/Ha) of the same compound?
A: Its value is 100%.

Q: What about the “effectiveness against most important weeds” value [7] of the same compound?
A: The value was “particularly effective”.

Q: What about the “Pre-emergent Percent Mean Control” value ([8]; 8.8 gai/Ha) of the same compound?
A: Its value is 70%.

Q: And the “Pre-emergent Percent Mean Control” value ([8]; 17.5 gai/Ha)?
A: The value was 78%.

Q: What about the “Pre-emergent Percent Mean Control” value ([8]; 35 gai/Ha) of the same compound?
A: The value was 88%.

Q: What about the “Pre-emergent Percent Mean Control” value ([8]; 70 gai/Ha) of the same compound?
A: Its value is 96%.

Q: What about the “Pre-emergent Percent Mean Control” value ([9]; 8.8 gai/Ha) of the same compound?
A: Its value is 79%.

Q: And the “Pre-emergent Percent Mean Control” value ([9]; 17.5 gai/Ha)?
A: Its value is 97%.

Q: And the “Pre-emergent Percent Mean Control” value ([9]; 35 gai/Ha)?
A: Its value is 100%.

Q: And the “Pre-emergent Percent Mean Control” value ([9]; 70 gai/Ha)?
A: Its value is 100%.

Q: And the “effectiveness in controlling vine and orchard floor weeds” value [10]?
A: The value was “effective”.
